Test results reported in patent publication US20240294586A1, “TENASCIN-C AUTOANTIGENIC EPITOPES IN RHEUMATOID ARTHRITIS” (Benaroya Research Institute at Virginia Mason, priority 2020, published 2024).
Where no end group is shown, it is not given here. [ ]: non-standard residue; d: D form. Cit = NC(=O)NCCC[C@H](N)C(=O)O

Experiments:
memory CD4+ T cells = assay: Ex vivo detection of peptide-reactive T cells by multiplex HLA class II tetramers; assay type: cell-based, human; conditions: peripheral blood, RA n=9, HC n=7
Description: Recombinant HLA-DRB1*04:01 protein was produced by the BRI Tetramer Core (Benaroya Research Institute, Seattle, WA) as previously described (Novak et al. 1999 J Clin Inv.104:R63). Soluble HLA-DRB1*04:01 monomer was purified from insect cell culture supernatants and biotinylated at a sequence-specific site using biotin ligase (Avidity) prior to dialysis into phosphate storage buffer. The biotinylated monomer was loaded with 0.2 mg/ml of peptide by incubating at 37° C. for 72 hours in the presence of 2.5 mg/ml n-octyl-β-D-glucopyranoside and 1 mM Pefabloc SC (Sigma-Aldrich). […]
Ex vivo tetramer staining and enrichment was accomplished using previously published protocols (Rims et al. 2019 Arthritis Rheumatol. 71:518; Uchtenhagen et al. 2016 Nat Comm 7:12614). […] Samples were run on a BD LSRII flow cytometer, and data was analyzed using FlowJo software version 10. The frequency (F) of epitope-specific T cells per million memory CD4+ T cells was calculated as follows: F=(1,000,000×tetramer-positive events from enriched tube)/(100×number of memory CD4+ T cells from the “Pre” fraction). […] These served as the parent populations from which one of the four tetramer positive T-cell populations were then gated on and analyzed for surface receptor expression. […]

HLA-DRB1*04:01 [1] = target: HLA-DRB1*04:01 (Homo sapiens, UniProt P01903+P01911, A100K/A169T/F76Y/I96L/K127E/L162R/M171V/N62H/P40V/Q125Y/R42H/S133A/S149N/S66Y/V115G/V209L/W38E); assay: Peptide competition binding assay to HLA-DRB1*04:01; conditions: competition with 0.01 μM biotinylated influenza HA306-318
[2] = test system: antibodies in sera from RA and HC subjects; assay: ELISA for detection of serum antibodies against peptides; assay type: binding, human; conditions: for antibody reactivity relative to threshold for positivity: Autoantibody Cohort 2
Description: ELISAs were used to detect antibodies against citrullinated peptides in sera from patients in Autoantibody Cohorts 1 and 2 (FIG. 6). Peptides used in the assay were synthesized by either GenScript or Pepceutical and are described in FIG. 12. The ELISAs were conducted as previously described (Riedl et al. 2001 Int J Colorectal Dis.16:285; Quarona et al. 2013 Cytometry Part B, Clinical cytometry 84:207). In brief, 96-well Nunc Maxisorp plates were coated with 10 μg/ml peptide in PBS, blocked with 2% BSA and incubated with sera diluted 1:100. Bound antibodies were detected with an HRP-conjugated anti-human IgG Fc monoclonal antibody (6043HRP, Stratech). A standard curve of positive sera was used to calculate relative antibody titers in arbitrary units (AU) for each sample. The CCP2 ELISA for Autoantibody Cohort 1 was performed as by the manufacturer's instruction (FCCP600, Axis-Shield). Cross-reactivity was analyzed in human sera that were reactive to both cTNC56 or cTNC17 and cTNC5. Sera were diluted 1:100, incubated with 1, 10 and 100 μg/ml of peptides for 2 hours, centrifuged at 10,000 g for 10 min and the supernatant added to peptide-coated plates for analysis by ELISA as described above. Positivity was defined by the cut-off of the 98% percentile of healthy control samples from Autoantibody Cohort 1.

[3] = test system: peripheral blood mononuclear cells (PBMC) from HLA-DRB1*04:01 positive subjects; assay: In vitro expansion of peptide-specific T cells and HLA class II tetramer staining; assay type: cell-based, human; conditions: two weeks of in vitro expansion, 10 μg/ml peptide
Description: Recombinant HLA-DRB1*04:01 protein was produced by the BRI Tetramer Core (Benaroya Research Institute, Seattle, WA) as previously described (Novak et al. 1999 J Clin Inv.104:R63). Soluble HLA-DRB1*04:01 monomer was purified from insect cell culture supernatants and biotinylated at a sequence-specific site using biotin ligase (Avidity) prior to dialysis into phosphate storage buffer. The biotinylated monomer was loaded with 0.2 mg/ml of peptide by incubating at 37° C. for 72 hours in the presence of 2.5 mg/ml n-octyl-β-D-glucopyranoside and 1 mM Pefabloc SC (Sigma-Aldrich). Peptide loaded monomers were conjugated into tetramers using fluorescently labeled streptavidin (Invitrogen) for 6-18 hours at room temperature at a molar ratio of 8:1.
Cryopreserved PBMCs from RA and healthy subjects were cultured at 5×10^6 cells/well in a 48 well plate in RPMI-1640+10% HPS with 10 μg/ml of peptide. IL-2 (Novartis) was added at 325 IU/ml on day 6. On day 14, cells were stained for expression of tetramer-PE, CD25 APC (BD) and CD4 FITC (BioLegend), and then characterized by immunocytofluorimetry on a FACSCanto™ (BD). The data were analyzed by FlowJo software version 10.

[4] = test system: CCP-reactive antibody (ACPA) pools from plasma and synovial fluid; assay: Extracellular matrix peptide microarray with polyclonal CCP-pools; assay type: binding, human; conditions: ACPA pools at 15 μg/ml
Description: The custom-made microarray was performed as previously described (Steen et al. 2019 Arthritis Rheumatol. 71:196). In brief, 16-aa long peptides that covered all arginine residues of 1,610 extracellular matrix proteins and RA related proteins were synthesized in situ (Roche NimbleGen). For tenascin C, there were a total of 217 peptides including both native and citrullinated variants of each peptide synthesized. Samples tested for reactivity against TNC derived peptides included synovial and plasma ACPA pools containing CCP-reactive antibodies from 26 and 38 RA patients, respectively (Ossipova et al. 2014 Arthritis Res Ther. 16:R167; Sahlström et al. 2020 Arthritis Rheumatol. 72:1643) Paired synovial fluid and serum samples from one RA patient taken at two time points 10 years apart were also screened. ACPA pools were run at a concentration of 15 μg/ml, whereas synovial fluid and plasma or serum samples were diluted 1/100 and tested for citrulline reactivity using a NimbleGen MS200 Scanner (Roche NimbleGen). A peptide signal intensity variation (spot size) of pixels was used as a basis for calculating the median fluorescence intensities. The cutoff for positive signals was defined as 5 times the fluorescence intensity of the 98th percentile of values for a set of monoclonal antibodies without citrulline reactivity. […]

HLA-DRB1*04:01 [5] = target: T1, HLA-DRB1*04:01 (human); assay: peptide competition assay against biotinylated HA306-318
T1 construct: MHC class II molecule; also called HLA-DR protein; recombinant HLA-DRB1*04:01 protein

Which “frequency of peptide-specific memory CD4+ T cells in RA compared to HC subjects” value (memory CD4+ T cells) does the source give for “MP 97-116: influenza peptide used as positive control (VKLYRKLKREITFHGAKEIS; Matrix protein 1; UniProt P03485 97-116, looked up, fragment) [reference compound]” here?
Its value is “did not differ between RA and HC subjects”.

For “arg-TNC17: corresponding unmodified arginine-containing peptide of cit-TNC17 (VSLISRRGDMSSNPA)”, which “binding to HLA-DRB1*04:01” value (HLA-DRB1*04:01 [1]) is on record?
The value was “did not”.

And the “antibody reactivity relative to threshold for positivity” value [2]?
The value was “below the threshold for positivity in almost all subjects”.

What does the source list for “arg-TNC22: corresponding unmodified arginine-containing peptide of cit-TNC22 (FDRYRLNYSLPTGQW)”?
binding to HLA-DRB1*04:01 (HLA-DRB1*04:01 [1]): bound; immunogenicity: epitope-specific T cell expansion by HLA Class II tetramer staining [3]: ability to elicit T cell responses

Which results are given for “arg-TNC45: corresponding unmodified arginine-containing peptide of cit-TNC45 (PDGFRLSWTADEGVF)”?
binding to HLA-DRB1*04:01 (HLA-DRB1*04:01 [1]): bound; immunogenicity: epitope-specific T cell expansion by HLA Class II tetramer staining [3]: ability to elicit T cell responses

How did the “binding to HLA-DRB1*04:01” value (HLA-DRB1*04:01 [1]) turn out when “arg-TNC56: corresponding unmodified arginine-containing peptide of cit-TNC56 (QGQYELRVDLRDHGE)” was run?
The value was “did not”.

And the “antibody reactivity relative to threshold for positivity” value [2]?
Its value is “below the threshold for positivity in almost all subjects”.

“cit-TNC5: previously published citrullinated peptide from the C-terminal FBG domain of TNC, used as positive control (CEHSIQFAEMKL[Cit]PSNF[Cit]NLEG[Cit][Cit]KRC; not fully specified; cysteine pairing not given here) [reference compound]” was tested. Which “antibody reactivity in plasma CCP-pool” value [4] did it give?
Its value is “could be verified”.

What about the “antibody reactivity in synovial fluid derived antibody pools” value [4] of the same molecule?
The value was “strong positive signal”.

What about the “RA sera with antibodies to the peptide” value ([2]; Autoantibody Cohort 1, HLA-DRB1*04:01 and CCP positive RA n=17) of the same molecule?
The value was 47%.

What about the “antibody titers / reactivity in RA sera” value ([2]; Autoantibody Cohort 1, sera diluted 1:100) of the same molecule?
The value was “highest”.

B1: arg-TNC56 (peptide)
peptide: QGQYELRVDLRDHGE
modifications: not fully specified
notes: See note of arg-TNC17
Does B1 bind (HLA-DRB1*04:01 [5])?
Result: no binding

B2: arg-TNC17 (peptide)
peptide: VSLISRRGDMSSNPA
modifications: not fully specified
Does B2 bind (HLA-DRB1*04:01 [5])?
Result: no binding
